Source: patent publication US20250025451A1, “TREATMENT OF CANCER WITH KDM4 INHIBITORS” (Celgene Corporation, priority 2021, published 2025)

How the values were obtained:
[1] = system: T002C patient-derived colon cancer organoid model; test: organoid colony formation assay, T002C; format: cell-based, human
Description: (§1) The IC50 values for Compound 1 inhibition of colony formation and viability were determined for the patient-derived colon cancer organoid models: SU60, T002C, SU62, SU34, SU103, T03SC, and SU106, patient-derived pancreatic cancer organoid models PA016SF, PA0143F, T016P, and T028P, and a patient-derived breast cancer organoid model FS5S3.
(§2) Colony formation and viability assays were performed in multiwell plates seeded with organoids using an in vitro culture system composed of a Matrigel layer, media containing a defined set of growth factors, and co-culture with Wnt3 A-secreting mouse embryonic fibroblasts. Assays were initiated by adding either DMSO as a negative control, or an inhibitor panobinostatat 100×IC50 concentration as a positive control, or serially diluted Compound 1. The cultures were incubated for 168 or 144 hours after which the number of viable organoids in each test well was assessed respectively using one of two detection methods: CTG or staining with calcein-AM followed by imaging and colony counting. Colony count or viability of cells treated with compound 1 was expressed as a percent of the negative control. Aggregated Percent of Control values were plotted against the corresponding Compound 1 concentration and the absolute IC50 value was determined from a non-linear regression curve as the concentration where inhibition was 50% of the control.

[2] = system: SU62 patient-derived colon cancer organoid model; test: organoid colony formation assay, SU62; format: cell-based, human
Description: as §1, §2

[3] = system: SU103 patient-derived colon cancer organoid model; test: organoid colony formation assay, SU103; format: cell-based, human
Description: as §1, §2

[4] = system: T035C patient-derived colon cancer organoid model; test: organoid colony formation assay, T035C; format: cell-based, human
Description: as §1, §2

[5] = system: SU106 patient-derived colon cancer organoid model; test: organoid colony formation assay, SU106; format: cell-based, human
Description: as §1, §2

[6] = system: T028P patient-derived pancreatic cancer organoid model; test: organoid colony formation assay, T028P; format: cell-based, human
Description: as §1, §2

[7] = system: FS53 patient-derived breast cancer organoid model; test: organoid colony formation assay, FS53; format: cell-based, human
Description: as §1, §2

[8] = system: COH70 patient-derived triple negative breast cancer xenograft; test: in vivo efficacy, COH70 patient-derived triple negative breast cancer xenograft model; details: COH70 TNBC PDX; for % TGI: Day 36; for Median Tumor Volumes Diff.: Day 36 minus Day 1
Description: The therapeutic in vivo efficacy of Compound 1 was evaluated in SU60 colorectal cancer, KYSE-150 esophageal cancer, COH70 triple-negative breast cancer, GXA-3036 gastric adenocarcinoma and OCI-LY19 Diffuse Large B-Cell Non-Hodgkin's Lymphoma xenograft models. In all studies, efficacy was determined based on percent tumor growth inhibition (TGI), differences in mean tumor growth, and statistical assessment of differences in net tumor volume distributions on the day of TGI analysis between control and treated animals. Tolerability was assessed based on differences in mean body weights between control and treated animals over the course of the study.
The in vivo therapeutic efficacy and tolerability of Compound 1, administered orally as the free acid form in a PBS vehicle plus two equivalents of NaOH (final pH 10), was evaluated in a dose range study using the COH70 TNBC PDX model established in female NSG mice. Each mouse was inoculated subcutaneously in the abdomen with 2×10^6 COH70 tumor cells (0.2 ml) suspended in Matrigel. When the average tumor size reached ˜107 mm3, test animals were randomized into 5 groups consisting of 9 mice per group and treatments were initiated. Control mice received PBS (pH 10) vehicle PO QDx36. Treated mice received Compound 1 (dissolved in PBS+2 equivalents of NaOH, final pH 10) PO at 50, 40, 25, or 12.5 mg/kg QDx36. TGI was determined on Day 36 as (1−Difftreated/Diffcontrol)×100. Individual tumors were measured twice weekly in two dimensions using a caliper, and the tumor volumes (TV) in mm3 were calculated using the formula: TV=0.5 (l×w×h), where l, w, and h are the tumor length, width, and height in mm, respectively. Mean tumor volumes±SEM were calculated and plotted versus days of dosing (left panel). Body weights were measured twice weekly. Body weights±SEM were calculated and plotted versus days of dosing (right panel).

MDA-MB-231 cells = test: cell cycle analysis in MDA-MB-231 cells; format: cell-based
Description: FIG. 3 illustrates that Compound 1 induces cell cycle arrest in S-phase. […] Cell cycle analysis was performed with MDA-MB-231 cells and using MultiCycle AV DNA analysis software.

CC(C)c1ccc(N(C)c2ccc3c(c2)OCC[C@H]3CNc2cnccc2C(=O)O)cc1 [Compound 1, 3-({[(4R)-7-{methyl[4-(propan-2-yl)phenyl]amino}-3,4-dihydro-2H-1-benzopyran-4-yl]methyl}amino)pyridine-4-carboxylic acid]
IC50 ([1]; Homo sapiens, T002C colorectal carcinoma model): < 150 nM
IC50 ([1]; T002C human colorectal carcinoma organoid, 144 hrs, Colony Counts): 22 nM
IC50 ([2]; Homo sapiens, SU62 colorectal carcinoma model): < 150 nM
IC50 ([2]; SU62 human colorectal carcinoma organoid, 144 hrs, Colony Counts): 149 nM
IC50 ([3]; Homo sapiens, SU103 colorectal carcinoma model): > 10 µM
IC50 ([3]; SU103 human colorectal carcinoma organoid, 144 hrs, Colony Counts): > 10 µM
IC50 ([4]; Homo sapiens, T035C colorectal carcinoma model): > 10 µM
IC50 ([4]; T035C human colorectal carcinoma organoid, 144 hrs, Colony Counts): > 10 µM
IC50 ([5]; Homo sapiens, SU106 colorectal carcinoma model): > 10 µM
IC50 ([5]; SU106 human colorectal carcinoma organoid, 144 hrs, Colony Counts): > 10 µM
IC50 ([6]; Homo sapiens, T028P pancreatic carcinoma model): > 10 µM
IC50 ([6]; T028P human pancreatic carcinoma organoid, 144 hrs, Colony Counts): > 10 µM
IC50 ([7]; FS53 human breast carcinoma model): 13.6 µM
IC50 ([7]; FS53 human breast carcinoma organoid, 144 hrs, Colony Counts): 13.6 µM
tolerability (dose-dependent mean body weight changes) ([8]; female NSG mice, 12.5-50 mg/kg PO QD x36): well-tolerated
mean body weight loss ([8]; female NSG mice, PO QD x36, over the course of the study): 6.5%
Median Tumor Volumes Day 36 ([8]; female NSG mice, free acid 12.5 mg/kg PO QD x36): 685 mm^3
Median Tumor Volumes Day 36 ([8]; female NSG mice, free acid 25 mg/kg PO QD x36): 524 mm^3
Median Tumor Volumes Day 36 ([8]; female NSG mice, free acid 40 mg/kg PO QD x36): 282 mm^3
Median Tumor Volumes Day 36 ([8]; female NSG mice, free acid 50 mg/kg PO QD x36): 295 mm^3
% TGI ([8]; 12.5 mg/kg PO QD x36): 57%
Median Tumor Volumes Diff. ([8]; 12.5 mg/kg PO QD x36): 581 mm^3
% TGI ([8]; 25 mg/kg PO QD x36): 68%
Median Tumor Volumes Diff. ([8]; 25 mg/kg PO QD x36): 424 mm^3
% TGI ([8]; 40 mg/kg PO QD x36): 86%
Median Tumor Volumes Diff. ([8]; 40 mg/kg PO QD x36): 184 mm^3
% TGI ([8]; 50 mg/kg PO QD x36): 86%
Median Tumor Volumes Diff. ([8]; 50 mg/kg PO QD x36): 191 mm^3
effect on cell cycle (MDA-MB-231 cells): increased proportion of cells in S-phase in a dose-dependent manner
